Measurements reported in patent US11826373B2, “Methods for treatment of diseases” (Galera Labs, LLC, priority 2011, dated 2023).

Assay: Activity toward hydrogen peroxide
Type: biochemical

Row | Compound | activity toward hydrogen peroxide
1 | manganese [III] tetrakis-(5,10,15,20)-benzoic acid porphyrin [MnTBAP] | significant activity
2 | CC(C)c1cc(C(=O)O)c([O-])c(C(C)C)c1.CC(C)c1cc(C(=O)O)c([O-])c(C(C)C)c1.[Cu+2] [CuDIPS, copper [II] diisopropylsalicylate] | significant activity
3 | mangafodipir | significant activity
